pIC50: −log10 of the molar value.
Legend:
human VEGFR2 = target: T1, human VEGFR2 (Homo sapiens, UniProt P35968); test: VEGFR2 HTRF Assay (assay 5); type: biochemical; details: pIC50 class; 10 μM ATP; read-out: Enzymatic VEGFR2 activity (assay 5)
T1 construct: GST-tagged recombinant kinase domain of the human VEGFR2; GST; host or cells: SF-9 cells
Description: Assay 5: VEGFR2 HTRF Assay
VEGFR2 inhibitory activity of compounds of the present invention was quantified employing the VEGFR2 HTRF assay as described in the following paragraphs.
GST-tagged recombinant kinase domain of the human VEGFR2 expressed in SF-9 cells was used as kinase. As substrate for the kinase reaction the biotinylated peptide biotin-Ahx-DFGLARDMYDKEYYSVG (C-terminus in acid form) was used which can be purchased e.g. form the company Biosynthan GmbH (Berlin-Buch, Germany). VEGFR2 was incubated for 45 min at 22° C. in the presence of different concentrations of test compounds in 5 μl assay buffer [50 mM Hepes/NaOH pH 7.0, 25 mM MgCl2, 5 mM MnCl2, 1.0 mM dithiothreitol, 0.1 mM sodium ortho-vanadate, 10 μM adenosine-tri-phosphate (ATP), 0.5 μM substrate, 0.001% (v/v) Nonidet-P40 (Sigma), 1% (v/v) dimethylsulfoxide]. The concentration of VEGFR2 was adjusted depending of the activity of the enzyme lot and was chosen appropriate to have the assay in the linear range. The reaction was stopped by the addition of 5 μl of a solution of HTRF detection reagents (0.1 μM streptavidine-XLent and 2 nM PT66-Eu-Chelate, an europium-chelate labelled anti-phospho-tyrosine antibody from Perkin Elmer) in an aqueous EDTA-solution (125 mM EDTA, 0.2% (w/v) bovine serum albumin in 50 mM HEPES/NaOH pH 7.0).
(§1) The resulting mixture was incubated for 1 h at 22° C. to allow the binding of the biotinylated phosphorylated peptide to the streptavidine-XLent and the PT66-Eu-Chelate. Subsequently the amount of phosphorylated substrate was evaluated by measurement of the resonance energy transfer from the PT66-Eu-Chelate to the streptavidine-XLent. Therefore, the fluorescence emissions at 620 nm and 665 nm after excitation at 350 nm was measured in a HTRF reader, e.g. a Rubystar (BMG Labtechnologies, Offenburg, Germany) or a Viewlux (Perkin-Elmer). The ratio of the emissions at 665 nm and at […] was taken as the measure for the amount of phosphorylated substrate. The data were normalized (enzyme reaction without inhibitor=0% inhibition, all other assay components but no enzyme=100% inhibition) and IC50 values were calculated by a 4 parameter fit using an inhouse software.

human PDGFRβ = target: T2, human PDGFRβ (Homo sapiens, UniProt P09619); test: PDGFRβ HTRF Assay (assay 6); type: biochemical; details: pIC50 class; 10 μM ATP; read-out: Enzymatic PDGFRβ activity (assay 6)
T2 construct: C-terminal fragment of human PDGFRβ (amino acids 561-1106); GST; His; purchased Proqinase [Freiburg i.Brsg., Germany]; host or cells: insect cells [SF9]
T2 sequence (P09619 561-1106): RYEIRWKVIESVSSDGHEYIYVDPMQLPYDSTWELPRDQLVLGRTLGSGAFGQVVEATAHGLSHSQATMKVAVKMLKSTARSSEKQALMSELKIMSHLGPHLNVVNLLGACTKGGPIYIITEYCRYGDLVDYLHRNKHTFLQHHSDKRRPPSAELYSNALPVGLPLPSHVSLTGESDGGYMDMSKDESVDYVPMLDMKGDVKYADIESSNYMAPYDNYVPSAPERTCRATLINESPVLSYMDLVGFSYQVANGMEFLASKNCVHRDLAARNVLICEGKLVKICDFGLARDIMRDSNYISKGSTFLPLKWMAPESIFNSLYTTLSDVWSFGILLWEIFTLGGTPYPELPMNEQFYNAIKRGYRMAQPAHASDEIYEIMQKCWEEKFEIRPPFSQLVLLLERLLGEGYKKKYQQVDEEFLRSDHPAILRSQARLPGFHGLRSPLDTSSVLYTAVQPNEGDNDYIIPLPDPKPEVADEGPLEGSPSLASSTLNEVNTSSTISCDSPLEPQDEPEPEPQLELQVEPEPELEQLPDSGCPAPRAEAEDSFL
Description: Assay 6: PDGFRβ HTRF Assay
PDGFRβ inhibitory activity of compounds of the present invention was quantified employing the PDGFRβ HTRF assay as described in the following paragraphs.
As kinase, a GST-His fusion protein containing a C-terminal fragment of human PDGFRβ (amino acids 561-1106, expressed in insect cells [SF9] and purified by affinity chromatography, purchased from Proqinase [Freiburg i.Brsg., Germany] was used. As substrate for the kinase reaction the biotinylated poly-Glu, Tyr (4:1) copolymer (#61GT0BLA) from Cis Biointernational (Marcoule, France) was used.
For the assay 50 nl of a 100 fold concentrated solution of the test compound in DMSO was pipetted into a black low volume 384 well microtiter plate (Greiner Bio-One, Frickenhausen, Germany), 2 μl of a solution of PDGFRβ in aqueous assay buffer [50 mM HEPES/NaOH pH 7.5, 10 mM MgCl2, 2.5 mM dithiothreitol, 0.01% (v/v) Triton-X100 (Sigma)] were added and the mixture was incubated for 15 min at 22° C. to allow pre-binding of the test compounds to the enzyme before the start of the kinase reaction. Then the kinase reaction was started by the addition of 3 μl of a solution of adenosine-tri-phosphate (ATP, 16.7 μM=>final conc. in the 5 μl assay volume is 10 μM) and substrate (2.27 μg/ml=>final conc. in the 5 μl assay volume is 1.36 μg/ml [˜30 nM]) in assay buffer and the resulting mixture was incubated for a reaction time of 25 min at 22° C. The concentration of PDGFRβ in the assay was adjusted depending of the activity of the enzyme lot and was chosen appropriate to have the assay in the linear range, typical enzyme concentrations were in the range of about 125 pg/μl (final conc. in the 5 μl assay volume). The reaction was stopped by the addition of 5 μl of a solution of HTRF detection reagents (200 nM streptavidine-XLent [Cis Biointernational] and 1.4 nM PT66-Eu-Chelate, an europium-chelate labelled anti-phospho-tyrosine antibody from Perkin Elmer) in an aqueous EDTA-solution (100 mM EDTA, 0.2% (w/v) bovine serum albumin in 50 mM HEPES/NaOH pH 7.5).
as §1, with “incubated” for “incubated for”, “The data were normalized (enzyme reaction without inhibitor=0% inhibition, all other assay components but no enzyme=100% inhibition) and IC50 values were calculated by a 4 parameter fit using an inhouse software.” left out

T1 sequence (P35968 834-1162 limits assumed): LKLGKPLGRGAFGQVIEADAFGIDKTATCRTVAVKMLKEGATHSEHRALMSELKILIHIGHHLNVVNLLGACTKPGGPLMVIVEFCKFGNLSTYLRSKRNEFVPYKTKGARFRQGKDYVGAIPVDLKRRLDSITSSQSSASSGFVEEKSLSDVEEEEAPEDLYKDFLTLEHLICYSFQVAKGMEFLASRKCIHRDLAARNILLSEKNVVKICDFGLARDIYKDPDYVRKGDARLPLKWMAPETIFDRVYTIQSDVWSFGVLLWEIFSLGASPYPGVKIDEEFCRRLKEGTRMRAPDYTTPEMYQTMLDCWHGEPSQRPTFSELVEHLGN

Row | pIC50 (human VEGFR2) | pIC50 (human PDGFRβ) | SMILES
1 | > 6.00 | > 6.00 | Cc1ccc(NC(=O)c2cccc(C(F)(F)F)c2)cc1C#Cc1cncc2c1cnn2C [Example 1.6, N-[4-Methyl-3-(1-methyl-1H-pyrazolo[3,4-c]pyridin-4-ylethynyl)-phenyl]-3-trifluoromethyl-benzamide]
2 | > 6.00 | > 6.00 | Cn1ncc2c(C#Cc3cccc(NC(=O)c4cccc(C(F)(F)F)c4)c3)cncc21 [Example 1.5, N-[3-(1-Methyl-1H-pyrazolo[3,4-c]pyridin-4-ylethynyl)-phenyl]-3-trifluoromethyl-benzamide]
3 | > 6.00 |  | Cn1ncc2c(C#Cc3cc(NC(=O)c4cccc(C(F)(F)F)c4)ccc3F)cncc21 [Example 1.9, N-[4-Fluoro-3-(1-methyl-1H-pyrazolo[3,4-c]pyridin-4-ylethynyl)-phenyl]-3-trifluoromethyl-benzamide]
4 | > 6.00 | > 6.00 | Cc1ccc(NC(=O)Nc2cccc(C(F)(F)F)c2)cc1C#Cc1cncc2c1cnn2C [Example 2.4, 1-[4-Methyl-3-(1-methyl-1H-pyrazolo[3,4-c]pyridin-4-ylethynyl)-phenyl]-3-(3-trifluoromethyl-phenyl)-urea]
5 | > 6.00 | > 6.00 | Cn1ncc2c(C#Cc3cccc(NC(=O)Nc4ccccc4)c3)cncc21 [Example 2.1, 1-[3-(1-Methyl-1H-pyrazolo[3,4-c]pyridin-4-ylethynyl)-phenyl]-3-phenyl-urea]
